Assay results: patent publication US4440943A, “Phenoxiodinin-5-ium antimicrobial compounds” (The Dow Chemical Company, priority 1982, dated 1984)
Where a name gives a salt, the structure may show the parent alone. Read-outs that look alike come from different tables or passages of the source. Blank lines part the entries; values can stand above or below the molecule they belong to.

Assays:
Assay type in all cases: cell-based
Salmonella typhosa = assay: Agar dilution MIC vs Salmonella typhosa (trypticase soy agar); conditions: for MIC: Salmonella enterica, TYPHOSA, read-out: Minimum inhibitory concentration, St, Salmonella typhosa, first screened at 500 ppm; for Minimum inhibitory concentration, St: Salmonella typhosa, first screened at 500 ppm
Procedure: (§1) A tube containing 30 ml of trypticase soy agar was melted and warmed to 45° C. The test compound was added to the tube at a concentration of 0.05% (500 ppm). The mixture was stirred and poured into plates to harden. When hardened, the plates were inoculated with various aerobic and anaerobic organisms. The aerobic plates were incubated at 37° C. for 24 hours and then read for bacterial growth. The same plates were again incubated at 30° C. for an additional 48 hours at which point they were checked for yeast and fungal growth. The anaerobic plates were incubated at 37° C. in an anaerobic chamber and read at 48 hours.
(§2) After the initial readings, compounds showing sufficient activity were re-tested at various concentrations to determine the minimum inhibitory concentration (MIC) of the compounds of the invention against various bacteria and fungi.

Escherichia coli = assay: Agar dilution MIC vs Escherichia coli (trypticase soy agar); conditions: first screened at 500 ppm; for MIC: read-out: Minimum inhibitory concentration, Ec
Procedure: as §1, §2

Streptococcus mutans [1] = assay: Agar dilution MIC vs Streptococcus mutans (trypticase soy agar); conditions: first screened at 500 ppm; for MIC: read-out: Minimum inhibitory concentration, Sm
Procedure: as §1, §2

Aspergillus niger = assay: Agar dilution MIC vs Aspergillus niger (trypticase soy agar); conditions: first screened at 500 ppm; for MIC: read-out: Minimum inhibitory concentration, An
Procedure: as §1, §2

Staphylococcus aureus = assay: Agar dilution MIC vs Staphylococcus aureus (trypticase soy agar); conditions: first screened at 500 ppm; for MIC: read-out: Minimum inhibitory concentration, Sa
Procedure: as §1, §2

[2] = test system: Streptococcus mutans (ATCC 10449); assay: MIC and MBC vs Streptococcus mutans, Todd Hewitt broth, standard dilution; conditions: for MBC: read-out: MBC (minimum bactericidal concentration)
Procedure: In another procedure, the minimum inhibitory concentration (MIC) and minimum bactericidal concentration (MBC) were determined in ppm for various compounds of the invention against the bacteria, Streptococcus mutans (ATCC 10449). The testing was performed using Todd Hewitt broth and standard dilution techniques.

Streptococcus mutans [3] = assay: Acid inhibition in Streptococcus mutans (Trypticase-yeast medium with sucrose, NaOH titration); conditions: S. mutans, 48 hours at 37° C.; for minimal effective concentration: Streptococcus mutans, 48 h, read-out: Acid Inhibition (minimum concentration which prevented acid formation)
Procedure: In still another operation, the acid inhibiting property of these compounds was tested against the known acid producing organism, Streptococcus mutans. Test tubes containing Trypticase-yeast medium with sucrose were inoculated with S. mutans and incubated for 48 hours at 37° C. The tubes were then titrated with 0.1 N sodium hydroxide.

Proteus mirabilis = assay: Agar dilution MIC vs Proteus mirabilis (trypticase soy agar); conditions: first screened at 500 ppm; for MIC: read-out: Minimum inhibitory concentration, Pm
Procedure: as §1, §2

Bacillus subtilis = assay: Agar dilution MIC vs Bacillus subtilis (trypticase soy agar); conditions: first screened at 500 ppm; for MIC: read-out: Minimum inhibitory concentration, Bs
Procedure: as §1, §2

Aspergillus fumigatus = assay: Agar dilution MIC vs Aspergillus fumigatus (trypticase soy agar); conditions: first screened at 500 ppm; for MIC: read-out: Minimum inhibitory concentration, Af
Procedure: as §1, §2

[4] = test system: Trichophyton mentagrophytes; assay: Agar dilution MIC vs Trichophyton mentagrophytes (trypticase soy agar); conditions: first screened at 500 ppm
Procedure: as §1, §2

Candida pelliculosa = assay: Agar dilution MIC vs Candida pelliculosa (trypticase soy agar); conditions: first screened at 500 ppm
Procedure: as §1, §2

[5] = Streptococcus mutans ATCC 10449, Todd Hewitt broth
[6] = Streptococcus mutans, ATCC10449, Streptococcus mutans ATCC 10449, Todd Hewitt broth
[7] = Streptococcus mutans, ATCC10449, Streptococcus mutans ATCC 10449, Todd Hewitt broth, read-out: MIC
[8] = Streptococcus mutans ATCC 10449, Todd Hewitt broth, monohydrate
[9] = Streptococcus mutans ATCC 10449, Todd Hewitt broth, dihydrate
[10] = Streptococcus mutans ATCC 10449, Todd Hewitt broth, hemihydrate

SMILES: CNS(=O)(=O)c1ccc2c(c1)[I+]c1cc(S(=O)(=O)NC)ccc1O2 [7(b), 3,7-Bis(methylaminosulfonyl)phenoxiodinin-5-ium chloride]
MIC (Salmonella typhosa): 500 µg/mL | MIC (Escherichia coli): 500 µg/mL | MIC (Streptococcus mutans [1]): 500 µg/mL | MIC (Aspergillus niger): 500 µg/mL

MIC [2, 5]: 0.78 ppm
SMILES: O=C(c1ccc2c(c1)[I+]c1cc(C(=O)C34CC5CC(CC(C5)C3)C4)ccc1O2)C12CC3CC(CC(C3)C1)C2 (single isomer, unassigned) [5(b)]
Minimum inhibitory concentration, Sa (Staphylococcus aureus): 0.78 PPM | Minimum inhibitory concentration, Sm (Streptococcus mutans [1]): 0.78 PPM | MBC (minimum bactericidal concentration) [2, 5]: 1.56 ppm

MIC [2, 7]: 62.5 µg/mL
SMILES: O=S(=O)(c1ccc2c(c1)[I+]c1cc(S(=O)(=O)N3CCOCC3)ccc1O2)N1CCOCC1 [8(a), 3,7-Bis(4-morpholinylsulfonyl)phenoxiodinin-5-ium sulfate hydrate]
MBC [2, 6]: > 125 µg/mL | minimal effective concentration (Streptococcus mutans [3]): 8 µg/mL

SMILES: COC(=O)c1ccc2c(c1)[I+]c1cc(C(=O)O)ccc1O2 [3(a), 3-Carboxy-7-(methoxycarbonyl)phenoxiodinin-5-ium chloride monohydrate]
Minimum inhibitory concentration, Sa (Staphylococcus aureus; monohydrate): 5 PPM | MIC (Salmonella typhosa): 10 µg/mL | MIC (Escherichia coli): 10 µg/mL | MIC (Proteus mirabilis): 10 µg/mL | MIC (Bacillus subtilis): 1 µg/mL | Minimum inhibitory concentration, Sm (Streptococcus mutans [1]; monohydrate): 500 PPM | MIC (Aspergillus niger): 500 µg/mL | MIC (Aspergillus fumigatus): 50 µg/mL | Minimum inhibitory concentration, Tm ([4]; monohydrate): 500 PPM | MIC (Candida pelliculosa; Hansenula anomala, read-out: Minimum inhibitory concentration, Cp): 500 µg/mL | MBC [2, 6]: 2 µg/mL | MIC [2, 7]: 2 µg/mL | minimal effective concentration (Streptococcus mutans [3]): 1 µg/mL

SMILES: COC(=O)c1ccc2c(c1)[I+]c1cc(C(=O)O)ccc1O2 [3(b), 3-carboxy-7-(methoxycarbonyl)-phenoxiodinin-5-ium bromide monohydrate]
Minimum inhibitory concentration, Sa (Staphylococcus aureus; monohydrate): 1.0 PPM | Minimum inhibitory concentration, St (Salmonella typhosa; monohydrate): 5 PPM | Minimum inhibitory concentration, Ec (Escherichia coli; monohydrate): 5 PPM | Minimum inhibitory concentration, Pm (Proteus mirabilis; monohydrate): 5 PPM | Minimum inhibitory concentration, Bs (Bacillus subtilis; monohydrate): 0.5 PPM | Minimum inhibitory concentration, Sm (Streptococcus mutans [1]; monohydrate): 10 PPM | Minimum inhibitory concentration, An (Aspergillus niger): 500 PPM | Minimum inhibitory concentration, Af (Aspergillus fumigatus; monohydrate): 100 PPM | Minimum inhibitory concentration, Tm ([4]; monohydrate): 100 PPM | Minimum inhibitory concentration, Cp (Candida pelliculosa): 500 PPM | MBC (minimum bactericidal concentration) [2, 8]: 1.0 ppm | MIC [2, 8]: 2.0 ppm | Acid Inhibition (minimum concentration which prevented acid formation) (Streptococcus mutans [3]): 1.0 ppm

MIC [2, 5]: 3.12 ppm
SMILES: O=C(c1ccc2c(c1)[I+]c1cc(C(=O)C34CC5CC(CC(C5)C3)C4)ccc1O2)C12CC3CC(CC(C3)C1)C2 (single isomer, unassigned) [5(a)]
Minimum inhibitory concentration, Sa (Staphylococcus aureus): 12.5 PPM | Minimum inhibitory concentration, Sm (Streptococcus mutans [1]): 3.12 PPM | MBC [2, 6]: 3.12 µg/mL

SMILES: CC(=O)c1ccc2c(c1)[I+]c1cc(C(C)=O)ccc1O2 [1(b), 3,7-diacetylphenoxiodinin-5-ium bromide monohydrate]
Minimum inhibitory concentration, St (Salmonella typhosa; monohydrate): 10 PPM | Minimum inhibitory concentration, Ec (Escherichia coli; monohydrate): 50 PPM | Minimum inhibitory concentration, Pm (Proteus mirabilis; monohydrate): 500 PPM | Minimum inhibitory concentration, Bs (Bacillus subtilis; monohydrate): 5 PPM | Minimum inhibitory concentration, Tm ([4]; monohydrate): 100 PPM | MBC (minimum bactericidal concentration) [2, 8]: 0.5 ppm | MIC [2, 8]: 0.1 ppm | Acid Inhibition (minimum concentration which prevented acid formation) (Streptococcus mutans [3]; monohydrate): 0.1 ppm

SMILES: CN1CCN(S(=O)(=O)c2ccc3c(c2)[I+]c2cc(S(=O)(=O)N4CCN(C)CC4)ccc2O3)CC1 [4(a), 3,7-bis((4-Methyl-1-piperazinyl)sulfonyl)phenoxiodinin-5-ium bromide, hydrobromide]
MIC (Staphylococcus aureus): 50 µg/mL | MIC (Salmonella typhosa): 500 µg/mL | MIC (Escherichia coli): 500 µg/mL | MIC (Bacillus subtilis): 100 µg/mL | MBC [2, 6]: ≥ 63 µg/mL | MIC [2, 7]: ≥ 63 µg/mL

SMILES: CCC(=O)c1ccc2c(c1)[I+]c1cc(C(=O)CC)ccc1O2 [2(b)]
Minimum inhibitory concentration, Sa (Staphylococcus aureus): 500 PPM | Minimum inhibitory concentration, Bs (Bacillus subtilis): 500 PPM | MBC (minimum bactericidal concentration) [2, 5]: 31 ppm | MIC [2, 5]: 125 ppm | Acid Inhibition (minimum concentration which prevented acid formation) (Streptococcus mutans [3]): 7.8 ppm

MIC (Staphylococcus aureus): 500 µg/mL | MIC (Bacillus subtilis): 500 µg/mL | MIC [2, 7]: > 125 µg/mL
SMILES: CN(C)S(=O)(=O)c1ccc2c(c1)[I+]c1cc(S(=O)(=O)N(C)C)ccc1O2 [9(a), 3,7-Bis(dimethylaminosulfonyl)phenoxiodinin-5-ium bromide]
MBC [2, 6]: > 125 µg/mL | Acid Inhibition (minimum concentration which prevented acid formation) (Streptococcus mutans [3]): 0.2 ppm

MIC [2, 5]: > 125 ppm
SMILES: CN(C)S(=O)(=O)c1ccc2c(c1)[I+]c1cc(S(=O)(=O)N(C)C)ccc1O2 [9(b), 3,7-Bis(dimethylaminosulfonyl)phenoxidinin-5-ium chloride]
Minimum inhibitory concentration, Sa (Staphylococcus aureus): 500 PPM | Minimum inhibitory concentration, Bs (Bacillus subtilis): 500 PPM | MBC (minimum bactericidal concentration) [2, 5]: > 125 ppm | Acid Inhibition (minimum concentration which prevented acid formation) (Streptococcus mutans [3]): 0.03 ppm

SMILES: CC(=O)c1ccc2c(c1)[I+]c1cc(C(C)=O)ccc1O2 [1(a), 3,7-Diacetylphenoxiodinin-5-ium chloride dihydrate]
MIC (Staphylococcus aureus): 5 µg/mL | MIC (Salmonella typhosa): 10 µg/mL | Minimum inhibitory concentration, Ec (Escherichia coli; dihydrate): 50 PPM | Minimum inhibitory concentration, Pm (Proteus mirabilis; dihydrate): 100 PPM | Minimum inhibitory concentration, Bs (Bacillus subtilis; dihydrate): 5 PPM | MIC (Aspergillus fumigatus): 500 µg/mL | Minimum inhibitory concentration, Tm ([4]; dihydrate): 500 PPM | MBC (minimum bactericidal concentration) [2, 9]: 0.98 ppm | MIC [2, 9]: 0.49 ppm | Acid Inhibition (minimum concentration which prevented acid formation) (Streptococcus mutans [3]; dihydrate): 0.12 ppm

SMILES: COC(=O)c1ccc2c(c1)[I+]c1cc(C(=O)O)ccc1O2 [3(c)]
Minimum inhibitory concentration, Sa (Staphylococcus aureus): 1.0 PPM | Minimum inhibitory concentration, St (Salmonella typhosa): 5 PPM | Minimum inhibitory concentration, Ec (Escherichia coli): 5 PPM | Minimum inhibitory concentration, Pm (Proteus mirabilis): 5 PPM | Minimum inhibitory concentration, Bs (Bacillus subtilis): 0.5 PPM | Minimum inhibitory concentration, Sm (Streptococcus mutans [1]): 500 PPM | Minimum inhibitory concentration, An (Aspergillus niger): 500 PPM | Minimum inhibitory concentration, Af (Aspergillus fumigatus): 100 PPM | Minimum inhibitory concentration, Tm [4]: 100 PPM | Minimum inhibitory concentration, Cp (Candida pelliculosa): 500 PPM | MBC (minimum bactericidal concentration) [2, 5]: 2.0 ppm | MIC [2, 5]: 1.0 ppm | Acid Inhibition (minimum concentration which prevented acid formation) (Streptococcus mutans [3]): 1.0 ppm

SMILES: O=C(O)c1ccc2c(c1)[I+]c1cc(C(=O)O)ccc1O2 [6(a)]
MIC (Staphylococcus aureus): 1 µg/mL | MIC (Salmonella typhosa): 10 µg/mL | MIC (Escherichia coli): 5 µg/mL | MIC (Proteus mirabilis): 50 µg/mL | MIC (Bacillus subtilis): 0.5 µg/mL | MIC (Streptococcus mutans [1]): 500 µg/mL | MBC [2, 6]: 3.9 µg/mL | MIC [2, 7]: 3.9 µg/mL | minimal effective concentration (Streptococcus mutans [3]): 3.9 µg/mL

SMILES: CNS(=O)(=O)c1ccc2c(c1)[I+]c1cc(S(=O)(=O)NC)ccc1O2 [7(a), 3,7-Bis(methylaminosulfonyl)phenoxiodinin-5-ium bromide hemihydrate]
MIC (Staphylococcus aureus): 500 µg/mL

SMILES: CCC(=O)c1ccc2c(c1)[I+]c1cc(C(=O)CC)ccc1O2 [2(a), 3,7-Dipropionylphenoxiodinin-5-ium chloride hemihydrate]
Minimum inhibitory concentration, Sa (Staphylococcus aureus; hemihydrate): 10 PPM | MIC (Salmonella typhosa): 50 µg/mL | MIC (Escherichia coli): 50 µg/mL | MIC (Proteus mirabilis): 100 µg/mL | Minimum inhibitory concentration, Bs (Bacillus subtilis; hemihydrate): 50 PPM | MIC ([4]; read-out: Minimum inhibitory concentration, Tm): 500 µg/mL | MBC (minimum bactericidal concentration) [2, 10]: 0.5 ppm | MIC [2, 10]: 2.0 ppm | Acid Inhibition (minimum concentration which prevented acid formation) (Streptococcus mutans [3]; hemihydrate): 0.1 ppm

SMILES: CC(=O)c1ccc2c(c1)[I+]c1cc(C(C)=O)ccc1O2 [1(c), 3,7-diacetylphenoxiodinin-5-ium bisulfite hemihydrate]
Minimum inhibitory concentration, St (Salmonella typhosa; hemihydrate): 5 PPM | Minimum inhibitory concentration, Ec (Escherichia coli; hemihydrate): 10 PPM | Minimum inhibitory concentration, Pm (Proteus mirabilis; hemihydrate): 50 PPM | Minimum inhibitory concentration, Bs (Bacillus subtilis; hemihydrate): 1.0 PPM | Minimum inhibitory concentration, Tm ([4]; hemihydrate): 100 PPM | MBC (minimum bactericidal concentration) [2, 10]: 8.0 ppm | MIC [2, 10]: 1.0 ppm | Acid Inhibition (minimum concentration which prevented acid formation) (Streptococcus mutans [3]; hemihydrate): 0.5 ppm
